Test [1] deals with PD-L1 expression. Kind of test: PD-L1 promoter-luciferase reporter assay in A549 pGL4.14-PD-L1 cell line. The test is classed as cell-based. Particulars: Homo sapiens, IFNγ (50 ng/ml) inducer, luminometer, read-out: PD-L1 expression inhibition rate in A549 (%). Here is the method: The PD-L1 promoter gene region was inserted into the pGL4.14-[luc2/Hygro] vector (promega, Madison, WI) in the following way to prepare a promoter-reporter construct for measuring gene transcription activity.
After preparing primer including KpnI and Xhol restriction enzyme sites in PD-L1, PCR (polymerase chain reaction) was performed, and promoter region DNA was separated by performing electrophoresis on an agarose gel. The pGL4.14-[1uc2/Hygro] vector containing firefly luciferase as a reporter gene was treated with the same restriction enzyme, and separated by agarose gel electrophoresis and gel extraction. The pure isolated PD-L1 promoter gene region and the pGL4.14-[luc2/Hygro] vector were reacted at 50° C. for 1 hour using in-fusion DNA ligase (Takara), followed by E. coli transformation to prepare a promoter-reporter construct into which the […] promoter was inserted, which was named pGL4.14-PD-L1.
To measure the transcriptional activity of the PD-L1 gene promoter, A549 cells were transiently transfected with the PD-L1 promoter-reporter construct as follows, and then the luciferase activity of the cell extract was measured.
The DNA-lipofectamine complex was prepared according to the manufacturer's protocol using 0.1 μtg of promoter-reporter construct plasmid and Lipofectamine 2000 reagent (Invitrogen). Opti-MEM medium (Invitrogen) was used in the process of forming a complex between DNA and Lipofectamine 2000. A549 cells were prepared at 2.5×10^5 cells per well (1 ml) in a 12-well plate by checking the number of cells immediately before adding the DNA. The DNA-lipofectamine complex was carefully mixed with A549 cells and reacted in an incubator at 37° C. for 6 hours. Thereafter, the medium was changed to search for transfected cells, and PD-L1-transfected A549 cells were found through a luciferase test. This was named A549 pGL4.14-PD-L1 cell line and the experiment was conducted. IFNγ (50 ng/ml) was used as a PD-L1 inducer.
The A549 pGL4.14-PD-L1 cell line was treated with the pyrimido pyrimidinone derivatives of Example at concentrations of 0.1 μM and 1.0 μM, respectively, and PD-L1 expression inhibition was evaluated using a luminometer. For comparison, the same experiment was performed for GS9973 (Entospletinib) known to have PD-L1 expression inhibitory activity.
The inhibition rate of PD-L1 expression was calculated by Equation 1 below. PD-L1 expression inhibition rate (%)=100−[(A/B)×100] [Equation 1]
wherein, A is a value when treated with a drug, and B is a value when not treated with a drug.
For orientation: In a reporter assay the amount or activity of a reporter protein is the signal.

A further test relates to PD-L1. In words: Western-blot analysis of PD-L1 in tumors excised from B16F10 mice. Details: species or system mouse. Particulars: tumors extracted from mice after the in vivo test of Experimental Example 2; FIG. 3. The text has this: After the in vivo tumor inhibition test using compound 1-8 of Experimental Example 2, the PD-L1 expression inhibition effect in tumor cells extracted from mice was confirmed through Western-blot analysis. For comparison, the efficacy of inhibiting PD-L1 expression in tumor cells extracted from the control mice was also confirmed through Western-blot analysis.
Proteins were identified with the ChemiDoc™ imaging system (Bio-rad) using a chemiluminescence (ECL) kit (elpis biotec, EBP-1073).

The subject of test [2] is PD-L1 expression. As to conditions: melanoma model; cited from earlier work.
The next test has as its system melanoma cell. As to conditions: melanoma model; cited from earlier work.
Test [3] relates to cell surface PD-L1 expression. Particulars: kinase inhibitor library screening, melanoma; cited from earlier work.

Results on 15 molecules are retold here after US12590098B2, “Pyrimido pyrimidinone compound and pharmaceutical composition comprising the same” (AXCESO BIOPHARMA CO., LTD., priority 2020, dated 2026).

The term inhibition denotes the drop in the measured response relative to a control, in per cent.

`Cc1ncc(NC(=O)c2cccc(C(F)(F)F)c2)cc1N1Cc2cnc(Nc3ccccc3)nc2N(C)C1=O` [Compound I-1, N-(6-methyl-5-(1-methyl-2-oxo-7-(phenylamino)-1,2-dihydropyrimido[4,5-d]pyrimidin-3(4H)-yl)pyridin-3-yl)-3-(trifluoromethyl)benzamide]: in the test on PD-L1 expression [1], the inhibition at 0.1 µM amounted to 12.8% and the inhibition at 1 µM was determined as 87.1%.

Take `Cc1ncc(NC(=O)c2cccc(C(C)(C)C)c2)cc1N1Cc2cnc(Nc3ccccc3)nc2N(C)C1=O` [Compound I-2, 3-(t-butyl)-N-(6-methyl-5-(1-methyl-2-oxo-7-(phenylamino)-1,2-dihydropyrimido[4,5-d]pyrimidin-3(4H)-yl)pyridin-3-yl)benzamide]: in the test on PD-L1 expression [1], the inhibition at 0.1 µM came out at 32.6% and the inhibition at 1 µM came to 72.5%.

For the molecule `COc1ncc(NC(=O)c2cccc(C(F)(F)F)c2)cc1N1Cc2cnc(Nc3ccccc3)nc2N(C)C1=O` [Compound I-3, N-(6-methoxy-5-(1-methyl-2-oxo-7-(phenylamino)-1,2-dihydropyrimido[4,5-d]pyrimidin-3(4H)-yl)pyridin-3-yl)-3-(trifluoromethyl)benzamide], in the test with PD-L1 expression [1], the inhibition at 0.1 µM came to 29.3% and the inhibition at 1 µM turned out to be 92.5%.

For the molecule `Cc1ncc(NC(=O)c2ccc(C3=NC(C)(C)CO3)cc2)cc1N1Cc2cnc(Nc3ccccc3)nc2N(C)C1=O` [Compound I-4, 4-(4,4-dimethyl-4,5-dihydrooxazol-2-yl)-N-(6-methyl-5-(1-methyl-2-oxo-7-(phenylamino)-1,2-dihydropyrimido[4,5-d]pyrimidin-3(4H)-yl)pyridin-3-yl)benzamide], in the test with PD-L1 expression [1], the inhibition at 0.1 µM was 20.1% and the inhibition at 1 µM turned out to be 82.5%.

Regarding `Cc1ncc(NC(=O)c2cccc(C3=NC(C)(C)CO3)c2)cc1N1Cc2cnc(Nc3ccccc3)nc2N(C)C1=O` [Compound I-5, 3-(4,4-dimethyl-4,5-dihydrooxazol-2-yl)-N-(6-methyl-5-(1-methyl-2-oxo-7-(phenylamino)-1,2-dihydropyrimido[4,5-d]pyrimidin-3(4H)-yl)pyridin-3-yl)benzamide], in the test on PD-L1 expression [1], the inhibition at 0.1 µM was determined as 19.4% and the inhibition at 1 µM is 81.9%.

Regarding `COc1ncc(NC(=O)c2cccc(C(C)(C)C)c2)cc1N1Cc2cnc(Nc3ccccc3)nc2N(C)C1=O` [Compound I-6, 3-(t-butyl)-N-(6-methoxy-5-(1-methyl-2-oxo-7-(phenylamino)-1,2-dihydropyrimido[4,5-d]pyrimidin-3(4H)-yl)pyridin-3-yl)benzamide], in the test with PD-L1 expression [1], the inhibition at 0.1 µM was determined as 13.9% and the inhibition at 1 µM was found to be 94.1%.

In the case of `COc1ncc(NC(=O)c2cccc(C3=NC(C)(C)CO3)c2)cc1N1Cc2cnc(Nc3ccccc3)nc2N(C)C1=O` [Compound I-7, 3-(4,4-dimethyl-4,5-dihydrooxazol-2-yl)-N-(6-methoxy-5-(1-methyl-2-oxo-7-(phenylamino)-1,2-dihydropyrimido[4,5-d]pyrimidin-3(4H)-yl)pyridin-3-yl)benzamide], in the test on PD-L1 expression [1], the inhibition at 0.1 µM is 13.1% and the inhibition at 1 µM was determined as 85.3%.

As to `CN1C(=O)N(c2cc(NC(=O)c3cccc(C(F)(F)F)c3)cnc2Cl)Cc2cnc(Nc3ccccc3)nc21` [Compound I-8, N-(6-chloro-5-(1-methyl-2-oxo-7-(phenylamino)-1,2-dihydropyrimido[4,5-d]pyrimidin-3(4H)-yl)pyridin-3-yl)-3-(trifluoromethyl)benzamide], the “expression of PD-L1 in tumor compared to the control group (Western blot)” value in the test on PD-L1 is listed as “reduced”. In addition, in the test with PD-L1 expression [1], the inhibition at 0.1 µM amounted to 60.4% and the inhibition at 1 µM was determined as 97.5%.

Consider `CN1C(=O)N(c2cc(NC(=O)c3cccc(C(C)(C)C)c3)cnc2Cl)Cc2cnc(Nc3ccccc3)nc21` [Compound I-9, 3-(t-butyl)-N-(6-chloro-5-(1-methyl-2-oxo-7-(phenylamino)-1,2-dihydropyrimido[4,5-d]pyrimidin-3(4H)-yl)pyridin-3-yl)benzamide], for which, in the test on PD-L1 expression [1], the inhibition at 0.1 µM amounted to 48.8% and the inhibition at 1 µM worked out at 97.2%.

On to `CN1C(=O)N(c2cc(NC(=O)c3csc(C(C)(C)C)n3)cnc2Cl)Cc2cnc(Nc3ccccc3)nc21` [Compound I-10, 2-(t-butyl)-N-(6-chloro-5-(1-methyl-2-oxo-7-(phenylamino)-1,2-dihydropyrimido[4,5-d]pyrimidin-3(4H)-yl)pyridin-3-yl)thiazole-4-carboxamide], for which, in the test on PD-L1 expression [1], the inhibition at 0.1 µM worked out at 67% and the inhibition at 1 µM came to 98%.

For `CN1C(=O)N(c2cc(NC(=O)c3cccc(C(F)(F)F)c3)cnc2Cl)Cc2cnc(Nc3ccc(O)cc3)nc21` [Compound I-11, N-(6-chloro-5-(7-((4-hydroxyphenyl)amino)-1-methyl-2-oxo-1,2-dihydropyrimido[4,5-d]pyrimidin-3(4H)-yl)pyridin-3-yl)-3-(trifluoromethyl)benzamide], in the test on PD-L1 expression [1], the inhibition at 0.1 µM was 65% and the inhibition at 1 µM amounted to 98%.

With `c1cn2cc(-c3ccc4cn[nH]c4c3)nc(Nc3ccc(N4CCOCC4)cc3)c2n1` [GS9973(Entospletinib), Entospletinib, reference compound], in the test on PD-L1 expression [1], the inhibition at 0.1 µM turned out to be 10.3% and the inhibition at 1 µM was found to be 47.1%.

In the case of `O=c1cc(-c2ccc(O)cc2)oc2cc(O)cc(O)c12` [apigenin], the “suppression of PD-L1 expression induced by IFN-γ” value in the test on PD-L1 expression [2] is “significantly suppress”. For the same molecule, in the test on melanoma cell, the “melanoma cell growth inhibitory effects” value is on record as “melanoma cell growth inhibitory effects”.

On to `COc1cc(/C=C/C(=O)CC(=O)/C=C/c2ccc(O)c(OC)c2)ccc1O` [curcumin], for which the “melanoma cell growth inhibitory effects” value in the test with melanoma cell is recorded as “melanoma cell growth inhibitory effects”.

As to `CNC(=O)c1cc(Oc2ccc(NC(=O)Nc3ccc(Cl)c(C(F)(F)F)c3)c(F)c2)ccn1` [regorafenib], the “reduction of cell surface PD-L1 expression level” value in test [3] is on record as “more than 50%”.
